Results published in patent US6737383B1, “Herbicidal oxadiazolidines” (priority 1999, dated 2004).

Key:
[1] = test system: bamyardgrass; experiment: Test B flood test barnyardgrass; format: in vivo, Echinochloa crus-galli
How it was run: (§1)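 Flood test on plants grown to the 2-leaf stage; treated plants kept in greenhouse twelve to sixteen days, then visually rated against controls on a 0 (no effect) to 10 (complete control) scale.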

[2] = test system: surinam grass; experiment: Test B pre/postemergence surinam grass; format: in vivo, Brachiaria decumbens
How it was run: (§2)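 Herbicidal effect was estimated by eye on a ten-point control scale after plants spent twelve to sixteen days in a greenhouse following soil or foliar treatment. Foliar sprays targeted plants at one to four leaves; all doses were formulated in a non-phytotoxic solvent with surfactant.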

[3] = test system: sugar beet; experiment: Test B pre/postemergence sugar beet; format: in vivo, Beta vulgaris
How it was run: as §2

[4] = test system: pigweed; experiment: Test B pre/postemergence pigweed; format: in vivo, Amaranthus retroflexus
How it was run: as §2

[5] = test system: soybean; experiment: Test B pre/postemergence soybean; format: in vivo, Glycine max
How it was run: as §2

[6] = test system: wild oat; experiment: Test B pre/postemergence wild oat; format: in vivo, Avena fatua
How it was run: as §2

[7] = test system: crabgrass; experiment: Test B pre/postemergence crabgrass; format: in vivo, Digitaria sanguinalis
How it was run: as §2

[8] = test system: giant foxtail; experiment: Test B pre/postemergence giant foxtail; format: in vivo, Setaria faberii
How it was run: as §2

[9] = test system: smallflower flatsedge; experiment: Test B flood test smallflower flatsedge; format: in vivo, Cyperus difformis
How it was run: as §1

[10] = test system: rape; experiment: Test B pre/postemergence rape; format: in vivo, Brassica napus
How it was run: as §2

[11] = test system: blackgrass; experiment: Test B pre/postemergence blackgrass; format: in vivo, Alopecurus myosuroides
How it was run: as §2

[12] = test system: velvetleaf; experiment: Test B pre/postemergence velvetleaf; format: in vivo, Abutilon theophrasti
How it was run: as §2

[13] = test system: corn; experiment: Test B pre/postemergence corn; format: in vivo, Zea mays
How it was run: as §2

[14] = test system: cocklebur; experiment: Test B pre/postemergence cocklebur; format: in vivo, Xanthium strumarium
How it was run: as §2

[15] = test system: morningglory; experiment: Test B pre/postemergence morningglory; format: in vivo, Ipomoea hederacea
How it was run: as §2

[16] = test system: purple nutsedge; experiment: Test B pre/postemergence purple nutsedge; format: in vivo, Cyperus rotundus
How it was run: as §2

[17] = Postemergence, Rate 62 g/ha, scale 0 to 10, 0 is no effect, 10 is complete control
[18] = Rate 125 g/ha, Postemergence section (flood test species), scale 0 to 10, 0 no effect, 10 complete control
[19] = Rate 250 g/ha, headed Pre-emergence (flood test species), scale 0 to 10 (0 no effect, 10 complete control)
[20] = Rate 500 g/ha, headed Pre-emergence (flood test species), scale 0 to 10 (0 no effect, 10 complete control)
[21] = Rate 500 g/ha, listed under Postemergence (flood test species), scale 0 to 10, 0 no effect, 10 complete control
[22] = flood test, listed under Postemergence, Rate 250 g/ha, scale 0 to 10, 0 no effect, 10 complete control
[23] = Postemergence, Rate 250 g/ha, scale 0 to 10, 0 no effect, 10 complete control
[24] = Preemergence, Rate 62 g/ha, scale 0 to 10 (0 no effect, 10 complete control)
[25] = Preemergence, Rate 125 g/ha, scale 0 to 10 (0 no effect, 10 complete control)
[26] = Preemergence, Rate 250 g/ha, scale of 0 to 10 where 0 is no effect and 10 is complete control
[27] = Preemergence, Rate 500 g/ha, scale 0 (no effect) to 10 (complete control)
[28] = Rate 125 g/ha, Postemergence, scale 0 to 10, 0 no effect, 10 complete control
[29] = Rate 500 g/ha, Postemergence, scale 0 to 10, 0 no effect, 10 complete control

## CC(C)N(C(=O)n1oc(=O)n(Cc2cccs2)c1=O)c1ccc(F)cc1F [Compound 86]
[1]; [17]
  Barnyardgrass plant response rating: 0
[1]; [18]
  Barnyardgrass plant response rating: 0
[1]; [19]
  Barnyardgrass plant response rating: 0
[1]; [20]
  Plant response rating, Barnyardgrass: 0
[1]; [21]
  Barnyardgrass plant response rating: 0
[1]; Rate 1000 g/ha, Pre-emergence (as headed), scale 0 to 10
  Barnyardgrass plant response rating: 0
[1]; Rate 2000 g/ha, Pre-emergence (as headed), scale 0 to 10, 0 no effect, 10 complete control
  Barnyardgrass plant response rating: 0
[1]; [22]
  Barnyardgrass plant response rating: 0
[2]; [17]
  B. signalgrass plant response rating: 0
[2]; [23]
  B. signalgrass plant response rating: 0
[2]; [24]
  B. signalgrass plant response rating: 0
[2]; [25]
  Plant response rating, B. signalgrass: 2
[2]; [26]
  Plant response rating, B. signalgrass: 4
[2]; [27]
  B. signalgrass plant response rating: 7
[2]; [28]
  B. signalgrass plant response rating: 0
[2]; Rate 500 g/ha, Postemergence, scale of 0 to 10 where 0 is no effect and 10 is complete control
  B. signalgrass plant response rating: 0
[3]; [17]
  Sugarbeets plant response rating: 0
[3]; [23]
  Sugarbeets plant response rating: 3
[3]; [24]
  Sugarbeets plant response rating: 0
[3]; [25]
  Plant response rating, Sugarbeets: 0
[3]; [26]
  Plant response rating, Sugarbeets: 3
[3]; [27]
  Sugarbeets plant response rating: 3
[3]; [28]
  Sugarbeets plant response rating: 3
[3]; [29]
  Sugarbeets plant response rating: 6
[4]; [17]
  Redroot pigweed plant response rating: 0
[4]; [23]
  Redroot pigweed plant response rating: 5
[4]; [24]
  Redroot pigweed plant response rating: 2
[4]; [25]
  Plant response rating, Redroot pigweed: 4
[4]; [26]
  Plant response rating, Redroot pigweed: 8
[4]; [27]
  Redroot pigweed plant response rating: 8
[4]; [28]
  Redroot pigweed plant response rating: 0
[4]; [29]
  Redroot pigweed plant response rating: 7
[5]; [17]
  Soybean plant response rating: 2
[5]; [23]
  Soybean plant response rating: 2
[5]; [24]
  Soybean plant response rating: 0
[5]; [25]
  Plant response rating, Soybean: 0
[5]; [26]
  Plant response rating, Soybean: 0
[5]; [27]
  Soybean plant response rating: 0
[5]; [28]
  Soybean plant response rating: 2
[5]; [29]
  Soybean plant response rating: 3
[6]; [17]
  Wild oats plant response rating: 0
[6]; [23]
  Wild oats plant response rating: 0
[6]; [24]
  Wild oats plant response rating: 0
[6]; [25]
  Plant response rating, Wild oats: 0
[6]; [26]
  Plant response rating, Wild oats: 4
[6]; [27]
  Wild oats plant response rating: 5
[6]; [28]
  Wild oats plant response rating: 0
[6]; [29]
  Wild oats plant response rating: 0
[7]; [17]
  Crabgrass plant response rating: 2
[7]; [23]
  Crabgrass plant response rating: 5
[7]; [24]
  Crabgrass plant response rating: 5
[7]; [25]
  Plant response rating, Crabgrass: 8
[7]; [26]
  Plant response rating, Crabgrass: 10
[7]; [27]
  Crabgrass plant response rating: 10
[7]; [28]
  Crabgrass plant response rating: 3
[7]; [29]
  Crabgrass plant response rating: 9
[8]; [17]
  Giant foxtail plant response rating: 0
[8]; [23]
  Giant foxtail plant response rating: 3
[8]; [24]
  Giant foxtail plant response rating: 8
[8]; [25]
  Plant response rating, Giant foxtail: 9
[8]; [26]
  Plant response rating, Giant foxtail: 10
[8]; [27]
  Giant foxtail plant response rating: 10
[8]; [28]
  Giant foxtail plant response rating: 2
[8]; [29]
  Giant foxtail plant response rating: 5
[9]; [17]
  S. Flatsedge plant response rating: 0
[9]; Pre-emergence, Rate 1000 g/ha, scale 0 to 10 (0 no effect, 10 complete control)
  S. Flatsedge plant response rating: 0
[9]; [18]
  S. Flatsedge plant response rating: 0
[9]; [19]
  S. Flatsedge plant response rating: 0
[9]; [20]
  Plant response rating, S. Flatsedge: 0
[9]; [21]
  S. Flatsedge plant response rating: 0
[9]; Rate 2000 g/ha, Pre-emergence (as headed), scale 0 to 10
  S. Flatsedge plant response rating: 0
[9]; [22]
  S. Flatsedge plant response rating: 0
[10]; [17]
  Rape plant response rating: 0
[10]; [23]
  Rape plant response rating: 2
[10]; [24]
  Rape plant response rating: 0
[10]; [25]
  Plant response rating, Rape: 0
[10]; [26]
  Plant response rating, Rape: 0
[10]; [27]
  Rape plant response rating: 4
[10]; [28]
  Rape plant response rating: 0
[10]; [29]
  Rape plant response rating: 4
[11]; [17]
  Blackgrass plant response rating: 0
[11]; [23]
  Blackgrass plant response rating: 1
[11]; [24]
  Blackgrass plant response rating: 2
[11]; [25]
  Plant response rating, Blackgrass: 3
[11]; [26]
  Plant response rating, Blackgrass: 5
[11]; [27]
  Blackgrass plant response rating: 8
[11]; [28]
  Blackgrass plant response rating: 0
[11]; [29]
  Blackgrass plant response rating: 3
[12]; [17]
  Velvetleaf plant response rating: 0
[12]; [23]
  Velvetleaf plant response rating: 0
[12]; [24]
  Velvetleaf plant response rating: 0
[12]; [25]
  Plant response rating, Velvetleaf: 0
[12]; [26]
  Plant response rating, Velvetleaf: 3
[12]; [27]
  Velvetleaf plant response rating: 5
[12]; [28]
  Velvetleaf plant response rating: 0
[12]; [29]
  Velvetleaf plant response rating: 2
[13]; [17]
  Corn plant response rating: 0
[13]; [23]
  Corn plant response rating: 00
[13]; [24]
  Corn plant response rating: 0
[13]; [25]
  Plant response rating, Corn: 0
[13]; [26]
  Plant response rating, Corn: 0
[13]; [27]
  Corn plant response rating: 0
[13]; [28]
  Corn plant response rating: 0
[13]; [29]
  Corn plant response rating: 0
[14]; [17]
  Cocklebur plant response rating: 0
[14]; [23]
  Cocklebur plant response rating: 2
[14]; [24]
  Cocklebur plant response rating: 0
[14]; [25]
  Plant response rating, Cocklebur: 0
[14]; [26]
  Plant response rating, Cocklebur: 0
[14]; [27]
  Cocklebur plant response rating: 0
[14]; [28]
  Cocklebur plant response rating: 1
[14]; [29]
  Cocklebur plant response rating: 2
[15]; [17]
  Morningglory plant response rating: 4
[15]; [23]
  Morningglory plant response rating: 7
[15]; [24]
  Morningglory plant response rating: 0
[15]; [25]
  Plant response rating, Morningglory: 0
[15]; [26]
  Plant response rating, Morningglory: 0
[15]; [27]
  Morningglory plant response rating: 0
[15]; [28]
  Morningglory plant response rating: 7
[15]; [29]
  Morningglory plant response rating: 8
[16]; [17]
  Nutsedge plant response rating: 0
[16]; [23]
  Nutsedge plant response rating: 0
[16]; [24]
  Nutsedge plant response rating: 0
[16]; [25]
  Plant response rating, Nutsedge: 0
[16]; [26]
  Plant response rating, Nutsedge: 0
[16]; [27]
  Nutsedge plant response rating: 0
[16]; [28]
  Nutsedge plant response rating: 0
[16]; [29]
  Nutsedge plant response rating: 0
